ChEMBL document CHEMBL4689842, “EUbOPEN Chemogenomics Library wave 1” (2021)

Columns and labels:
U2OS = assay: Incucyte cell viability with U2OS; assay type: toxicity, cell-based; details: human, 10 µM, compound concentration 10 uM
Fibroblast = assay: Incucyte cell viability with human fibroblast; assay type: toxicity, cell-based; details: 10 µM, compound concentration 10 uM
[1] = 0 h, replicate number 2, timepoint 0 hours
[2] = 12 h, replicate number 1, timepoint 12 hours
[3] = 12 h, replicate number 2, timepoint 12 hours
[4] = 18 h, replicate number 1, timepoint 18 hours
[5] = 24 h, replicate number 1, timepoint 24 hours
[6] = 0 h, replicate number 1, timepoint 0 hours
[7] = 6 h, replicate number 1, timepoint 6 hours
[8] = 18 h, replicate number 2, timepoint 18 hours
[9] = 24 h, replicate number 2, timepoint 24 hours
[10] = 6 h, replicate number 2, timepoint 6 hours
Further: filed as whole numbers so only -1 and 0 and 1 occur.

SMILES | Growth Rate (U2OS; [1]) | Growth Rate (U2OS; [2]) | Growth Rate (U2OS; [3]) | Growth Rate (U2OS; [4]) | Growth Rate (U2OS; [5]) | Growth Rate (Fibroblast; [6]) | Growth Rate (Fibroblast; [4]) | Growth Rate (Fibroblast; [5]) | Growth Rate (U2OS; [6]) | Growth Rate (U2OS; [7]) | Growth Rate (U2OS; [8]) | Growth Rate (U2OS; [9]) | Growth Rate (Fibroblast; [1]) | Growth Rate (Fibroblast; [7]) | Growth Rate (Fibroblast; [2]) | Growth Rate (Fibroblast; [8]) | Growth Rate (Fibroblast; [9]) | Growth Rate (Fibroblast; [3]) | Growth Rate (U2OS; [10]) | Growth Rate (Fibroblast; [10])
Cc1[nH]c(/C=C2\C(=O)Nc3ccc(S(=O)(=O)N(C)c4cccc(Cl)c4)cc32)c(C)c1C(=O)N1CCN(C)CC1 | 0 | 0 | 1 | 0 | 0 | 0 | 1 | 1 |  |  |  |  |  |  |  |  |  |  |  | 
Cn1c(-c2csc(C3CCN(CC4=NC5N=CC=CC5N4)CC3)n2)nc2ccccc21 (centres undefined) [BAY-070] |  | 1 |  | 0 | 1 |  | 1 | 1 | 0 | 0 | 1 | 0 | 1 | 0 | 1 |  |  |  |  | 
Cc1nc(-c2cn3c(n2)-c2ccc(-c4cnn(C(C)(C)C(N)=O)c4)cc2OCC3)n(C(C)C)n1 [TASELISIB] |  | 1 |  | 0 | 0 | 0 | 0 | 0 | 0 | 0 | 1 |  | 1 | 0 | 0 |  |  |  |  | 
CNc1nc(NCc2ccc(NS(C)(=O)=O)cc2Cl)cc(-c2ccccn2)n1 |  | 0 |  | 0 | 0 |  | 0 | 0 | 0 | 0 |  |  |  | 0 | 0 |  |  |  |  | 
CC[C@H](C)C(=O)O[C@H]1C[C@@H](C)C=C2C=C[C@H](C)[C@H](CC[C@@H]3C[C@@H](O)CC(=O)O3)[C@H]21 [LOVASTATIN] |  | 0 |  | 0 | 0 | 0 | 1 | 1 |  | 0 |  |  |  | 1 | 1 |  |  |  |  | 
C[C@@]1(C(=O)Nc2ccc(F)nc2)CCCN1c1nc(Nc2cc(C3CC3)n[nH]2)c2cccn2n1 [BMS-754807] |  | 0 |  | 0 | 0 |  | 0 | 0 | 0 | 0 |  |  |  | 0 | 0 |  |  |  |  | 
CN(C)C(=O)N[C@H]1CC[C@H](CCN2CCN(c3cccc(Cl)c3Cl)CC2)CC1.Cl [CARIPRAZINE HYDROCHLORIDE] |  | 1 |  | 1 | 1 | 0 | 1 | 1 | 1 | 0 |  |  |  | 0 | 0 | 0 | 0 |  |  | 
CCOCCn1cc(C(=O)Nc2ccc(-n3nc(-c4cccnc4)cc3C(F)(F)F)cn2)ccc1=O [BI 1935] |  | 0 |  | 0 | 0 |  | 0 | 0 | 0 | 0 |  | 1 | 0 | 1 | 0 |  | 1 | 1 |  | 
Cc1nc(-c2ccc(-c3ccc(C(=O)N4CCc5cc6c(cc54)C4(CCN(C)CC4)CO6)cc3)c(C)c2)no1 [SB-224289] | 0 |  | 1 | 1 | 1 | 0 | 0 | 0 |  |  |  | 0 |  |  | 0 |  |  |  | 1 | 0
OC1(c2ccc(Cl)cc2)CCN(Cc2c[nH]c3ccccc23)CC1 |  | 0 |  | 0 | 0 | 0 | 0 | 0 |  |  |  |  |  | 0 | 0 |  |  |  | 0 | 
CN1CCCC(n2nc(Cc3ccc(Cl)cc3)c3ccccc3c2=O)CC1.Cl (centres undefined) [AZELASTINE HYDROCHLORIDE] |  |  | 1 | 1 | 1 | 0 | 1 | 0 | 0 |  |  |  |  |  | 1 | 0 |  | 0 | 0 | 0
O=C(NCCN1CCOCC1)c1ccc2c(c1)C(=O)c1ccc(Nc3ccc(F)c(NC(=O)c4ccccc4)c3)cc1CC2 [FS-694] | 0 | 1 |  | 0 | 0 | 0 | 0 | 0 |  |  |  | 1 |  | 1 | 0 |  |  |  |  | 
Cl.N#Cc1ccc2[nH]cc(CCCCN3CCN(c4ccc5oc(C(N)=O)cc5c4)CC3)c2c1 [VILAZODONE HYDROCHLORIDE] |  | 1 | 0 | 0 | 0 | 0 | 0 | 0 | 0 |  |  |  |  |  | 1 |  |  | 0 | 1 | 0
Cc1sc2c(c1C)C(c1ccc(Cl)cc1)=N[C@@H](CC(=O)OC(C)(C)C)c1nnc(C)n1-2 |  | 1 |  | 0 | 0 |  | 0 | 0 | 0 | 0 | 1 | 1 | 0 | 0 | 0 |  |  |  | 1 | 1
CC(C)(O)CNc1ncc(-c2ccnc(Nc3ccnc(Cl)c3)n2)c(CC2CC2)n1 |  | 0 |  | 0 | 0 |  | 0 | 0 | 0 | 1 | 1 | 1 | 1 | 0 | 0 |  |  |  |  | 1
Nc1c(C(=O)NCc2ccc(C(=O)NCCCC3CCCCC3)cc2)cnn1-c1ccccc1 [SR-318] | 0 | 1 |  | 1 | 1 | 0 | 0 | 0 |  | 1 |  |  | 1 | 1 | 1 |  |  | 0 |  | 0
CN(C)CC#Cc1ccc(OCCCc2sc(N3CCc4cccc(C(=O)Nc5nc6ccccc6s5)c4C3)nc2C(=O)O)c(F)c1 [A-1155463] |  | 0 | 1 | 0 | 0 | 0 | 0 | 0 | 0 | 0 |  |  |  | 0 | 0 |  |  |  |  | 
CC(C)NCC(O)COc1ccc(CCOCC2CC2)cc1.Cl (centres undefined) [BETAXOLOL HYDROCHLORIDE] |  |  |  | 1 | 1 | 0 | 0 | 0 | 0 |  |  |  |  | 0 | 0 |  |  |  |  | 
COc1cc2nccc(Oc3ccc(NC(=O)Nc4cc(C)on4)c(Cl)c3)c2cc1OC.O | 0 | 0 |  | 0 | 0 | 0 | 0 | 0 | 1 | 0 |  |  |  | 0 | 0 |  |  |  |  | 1
